Results on one compound are retold here after patent publication CN109762015A, “一种阿维菌素B2a磷酸化修饰物及其制备方法和应用” (HEBEI MEIHE PHARMACEUTICAL Co Ltd, priority 2019, dated 2019).

Data set [1] has as its system root-knot nematode of watermelon (西瓜根结线虫). As to the kind of experiment: Field trial: control of watermelon root-knot nematode (Example 7). Particulars: 0.25 g/plant, hole application at transplanting; assessed 2 d before harvest, five-point sampling, 10 plants per field. It counts as in vivo.
Data set [2] concerns other diseases and pests and non-target organisms (其他病虫害及非靶标生物). As to the kind of experiment: Safety evaluation: effect on other diseases/pests and non-target organisms (Example 7). Type of data set: in vivo. As to conditions: 0.25 g/plant, hole application at transplanting.
The next data set deals with watermelon (西瓜). As to the kind of experiment: Watermelon yield after treatment (Example 8). Particulars: 0.25 g/plant at transplanting. Type of data set: in vivo.
For another data set, the system named is plants (植株). Particulars: background statement; cited from earlier work.

In turn, `CC[C@H](C)[C@H]1O[C@@]2(C[C@@H]3C[C@@H](C/C=C(\C)[C@@H](O[C@H]4C[C@H](OC)[C@@H](O[C@H]5C[C@H](OC)[C@@H](O)[C@H](C)O5)[C@H](C)O4)[C@@H](C)/C=C/C=C4\CO[C@@H]5[C@H](O)C(C)=C[C@@H](C(=O)O3)[C@]45O)O2)C[C@H](O)[C@@H]1C` [阿维菌素B2a] gave a control effect in data set [1] of 83.32%. In data set [2], the “effect on other diseases/pests and non-target organisms” value was “无不良影响”. Also, the single fruit weight with watermelon (西瓜) (3 watermelons per field, blank field 5.98) was 7.01 kg. This compound gave a converted yield with watermelon (西瓜) (converted from weighing 3 watermelons per field, blank field 38967.4) of 47784.9 kg·hm-2. Besides, the “growth rate relative to blank field (yield increase)” value with watermelon (西瓜) (versus blank field) amounted to 22.62%. The “phytotoxicity in individual plants” value in the data set with plants (植株) is on record as “会使个别植株出现黄化、烧根等现象”.
